According to US20260209277A1, “COMPOUNDS FOR RNA STABILISATION AND DELIVERY” (STICHTING VU, priority 2022, published 2026):
No end group written: not given here.

Experiments:
[1] = tested on: miR-21; experiment: Stabilization Assay of miR-21 in fetal bovine serum; assay type: in vitro ADME; conditions: miR-21 9 μM, peptide 18 μM; for stabilizing effect on miR-21 in increasing FBS: 10 min at 37° C., FBS gradient
Description: The rapid degradation of RNA by nucleases in serum is one of the central challenges associated with the therapeutic use of RNA. Applicants were therefore interested whether peptide binding promotes RNA stability in serum. For this purpose, miR-21 was incubated with different concentrations of fetal bovine serum (FBS) at 37° C., followed by phenol/chloroform extraction and PAGE analysis (FIG. 14). […] Both is in line with their reduced affinity for miR-21 (FIGS. 12a and 12b). To investigate the time-dependence of RNA stability, a prolonged incubation of RNA in serum (27.5% FBS) was performed, and the remaining RNA visualized by native PAGE (FIG. 14d). Remarkably, even after 6 hours, miR-21 was still detectable in the presence of peptide 2^∘∘2, while in the absence of the peptide, RNA was fully degraded within 15 minutes in line with afore made observations. These findings highlight the potential of peptide 2^∘∘2 to strongly enhance the stability of dsRNA in serum.
RNA stabilization was investigated by incubation of peptide/RNA complexes with fetal bovine serum (FBS) (Thermo Fischer Scientific). Peptide/RNA complexes were formed as described above after which defined amounts of FBS were added (concentration(RNA)=9 μM, concentration(peptide)=18 μM, total volume 10 μL). For gradient stability assay FBS containing RNA solutions were incubated at 37° C. for 10 min and for time course analysis at room temperature with 27.5% FBS. After incubation, 10 μL of NaOAc (3 M), 1 μL Glycogen (Thermo Fischer Scientific), 1 μL Ribolock (Thermo Fischer Scientific) and ddH2O was added on ice to a total volume of 200 μL.
RNA was extracted twice with freshly prepared solution of phenol/chloroform (5:1, 2 mL). After ethanol precipitation (1 mL) of the aqueous phase RNA pallets were redissolved in 8 μL ddH2O and added 2 μL 6×BB and then loaded into a native PAGE gel and run with previously described conditions.

[2] = tested on: RNA hairpins (HP 1-5); experiment: EMSA with RNA hairpins (HP 1-5); assay type: binding; conditions: HP 1-5 c=1 μM, peptide c=4 μM
Description: The binding of 2^∘∘2 to a set of five ds RNA hairpins, composed of different, complementary 19 base pair stems bridged via a fixed 6 nucleotide loop (FIG. 8a).
Electrophoretic mobility shift assays (EMSA's) were performed using a Bio-Rad MiniProtean gel system paired with a direct current (DC) power source (PowerPac™ HC, BioRad). […] For gels monitoring disulfide reduction, peptide/RNA solutions were incubated in increasing concentrations (concentration=6, 60 and 600 μM) of TCEP. After incubation, bound nucleic acid complexes were resolved using 15% and 10% non-denaturing polyacrylamide gels (acrylamide:bis-acrylamide (19:1) in 1×TAE) at 150 V or 120 V in running buffer (1×TAE) at 4° C. for 1.5 hours. For nucleic acid visualization, gels were stained using 2 μL of SYBR™ gold nucleic acid gel dye (Invitrogen) in 20 mL of 1×TAE buffer for 15 minutes at RT before being imaged using a Bio-Rad ChemiDoc.

[3] = tested on: miR-21; experiment: Thermal denaturation assay (CD, Tm determination) of miR-21/peptide complexes; assay type: binding; conditions: for melting temperature (Tm) of miR-21 co-incubated with peptide: equimolar c=2 μM, ellipticity at λ=267 nm, miR-21 alone 51° C.
Source text: A thermal denaturation assay was next used to further characterize the dsRNA binding abilities of our peptides. Typically employed in the study of nucleic acid complexes, thermal denaturation assays make use of the spectral changes resulting from complex unfolding as temperature is increased. Using circular dichroism (CD) spectroscopy as a readout, we measured the changes in ellipticity at λ=267 nm, the wavelength maxima associated with A-form dsRNA. In line with previous measurements, the mid-point of denaturation or melting temperature (Tm) associated with miR-21 is 51° C. (FIG. 2b and FIG. 2c). To assess the stability of peptide-dsRNA complexes, peptides were co-incubated with miR-21 at an equimolar concentration (c=2 μM) and measured analogously. […] Contrastingly, incubation with dimeric peptide 1^∘∘1 leads to a greater increase stabilization (Tm=56° C., FIG. 2b) which was also seen for peptide 2 (Tm=58° C., FIG. 2c). […] CD spectroscopy allows not only the measurement of thermal denaturation profiles but can also be used to compare the structural characteristics of biomolecular complexes. […]
Circular dichroism (CD) spectra were recorded with a Jasco J-1500 spectropolarimeter (Jasco) equipped with a programmable Peltier thermostat in a stoppered quartz cuvette (10 mm; Hellma). […] For each sample, 10 CD spectra were measured between 200 nm and 350 nm with continuous scan mode (1 mdeg sensitivity, 1.0 nm resolution, 1.0 nm bandwidth, 2 s integration time, 100 nm/min scan rate). […]
where θ=observed ellipticity/mdeg, c=DNA or RNA strand concentration/mol/L and l=path length/cm. Melting temperature (Tm) determination was conducted with the same instrumentation and sample preparation, where ellipticity (θ=267 nm) was measured by ramping the temperature from 15-90° C. […] Raw data were normalized as described above, and Tm-values were determined using the CDpal program before being plotted in Prism 5.0 (GraphPad).

[4] = tested on: miR-21; experiment: Electrophoretic mobility shift assay (EMSA) with miR-21; assay type: binding; conditions: c(RNA)=3 μM; for dsRNA binding in EMSA (band shift): c(peptide)=6 μM, 15% native PAGE
Source text: With the desired peptides in hand, we first assessed their dsRNA-binding potential using an electrophoretic mobility shift assay (EMSA). Making use of non-denaturing conditions, EMSA allows to resolve biomolecular complexes by size and charge character.
WT33 was employed as comparative positive control for peptide binding while the double-stranded microRNA, miR-21, was chosen as a sample dsRNA target for this assay. Comprised of an 18 base pair (bp) duplex, miR-21 can accommodate the binding of two wt33 monomers, similar to siRNA duplexes. Under established EMSA conditions, miR-21 resolves as two bands, a lower band corresponding to both unbound single strands and a higher, more distinct band (ca. 20 bp) corresponding to the miR-21 duplex (FIG. 2a). […] With reference to wt33, the most prominent elevated band (ca. 30 bp) likely corresponds to a 1:1 peptide/dsRNA complex while the upper band may represent a higher order structure. The reduction in ds and ssRNA band intensity is likely a result of these binding events.
Additionally, EMSA experiments were performed where dsRNA was incubated with either peptide 1^∘∘1 or 2^∘∘2 in the presence or absence TCEP. […] Having verified the tuneable, dsRNA-binding abilities of our peptide dimers, their use a cellular siRNA delivery tools was confirmed.
Electrophoretic mobility shift assays (EMSA's) were performed using a Bio-Rad MiniProtean gel system paired with a direct current (DC) power source (PowerPac™ HC, BioRad). Typically, 6 μL solutions containing RNA (concentration=3 μM) and peptide (concentration=6 μM) were incubated for 1 h at RT in a binding buffer (1×TAE and 10% glycerol). For gels monitoring disulfide reduction, peptide/RNA solutions were incubated in increasing concentrations (concentration=6, 60 and 600 μM) of TCEP. After incubation, bound nucleic acid complexes were resolved using 15% and 10% non-denaturing polyacrylamide gels (acrylamide:bis-acrylamide (19:1) in 1×TAE) at 150 V or 120 V in running buffer (1×TAE) at 4° C. for 1.5 hours. […]

[5] = tested on: miR-21; experiment: Isothermal titration calorimetry (ITC); assay type: binding; conditions: for N-value (peptides per miR-21 duplex) / −TΔS (entropic penalty) / Kd: 30° C.; for Kd: 1×PBS
Description: To confirm RNA-binding, isothermal titration calorimetry (ITC) was used. […] For wt33 this is in line with applicants' previously reported observations.
Isothermal titration calorimetry (ITC) was conducted using a VP-ITC (MicroCal). Before measurement, annealed miR-21 and peptide samples were dissolved in 1×PBS and degassed using a ThermoVac and heated to 30° C. miR-21 (c=6-15 μM) was then transferred into the sample cell (1.8 mL) and peptides (c=86-305 μM) were transferred into the syringe (300 μL). 37 Injections per measurement were performed at 30° C. (8 μl injection volume, 3.2 s injection time, 180 s spacing, high feedback mode) with an initial delay of 60 s and a stirring speed of 310 rpm. Data were analyzed using the MicroCal LLC ITC software (Origin; OriginLab Corporation), the heat associated with each injection was calculated by integrating the area under the curve for each injection and then normalized to concentration. A ‘single set of identical binding sites’ model was used to fit the binding curves from which thermodynamic binding parameters (ΔG, ΔH, ΔS, N and Kd) were calculated.

[6] = tested on: HEK293 cells; experiment: Confocal microscopy of Cy5-siRNA uptake in HEK cells; assay type: cell-based; conditions: HEK293, Cy5-siRNA 1 μM
Description: For that purpose, a 21 nt long siRNA comprised of a 19 bp stem and equipped with the far-red fluorescent label, cyanine 5 (Cy5) to monitor RNA internalization (Cy5-siRNA, FIG. 7a) was employed. Initially, HEK293 cells were incubated with Cy5-siRNA (c=1 μM, 37° C., 1 h) before being imaged by confocal fluorescence microscopy. […] To assess the tunability of this effect, Cy5-siRNA/1^∘∘1 or Cy5-siRNA/2^∘∘2 complexes were also pre-treated with the reducing agent dithiothreitol (DTT) in order to promote complex disassembly.
HEK cells were seeded at a density of 40000 cells per well on an 8 well micro-slide (Ibidi), one day before the experiment. They were cultured in DMEM (Thermofisher Scientific), supplemented with 10% Fetal Calf Serum (FCS, PAN Biotech) and glutamax (Life technologies). Before starting the experiment, the peptides and Cy5-labelled siRNA were incubated at a peptide/siRNA ratio of 2:1 (6 μM-3 μM) for 1 h. In case for dithiothreitol (DTT) supplemented experiments, DTT was added to a concentration of 20 mM. The samples were diluted to a final siRNA concentration of 1 μM in serum free DMEM. Cells were washed 1× to remove FCS, and incubated in the siRNA:peptide solution for 1 hour at 37° C. After incubation, cells were washed with the phenol-red free DMEM with HEPES, and imaged. […]

N-terminal disulfide (S-S) homodimer of stapled XβNQKKQAQRKRHKS5NRKS5R (SEQ ID NO 23) [peptide 2^∘∘2]
time miR-21 still detectable in serum in presence of peptide ([1]; 27.5% FBS, room temperature, without peptide fully degraded within 15 minutes): ≥ 6 h
stabilizing effect on miR-21 in increasing FBS [1]: residual RNA levels at 20% FBS to be comparable to those at 1% FBS in the absence of peptide
binding to RNA hairpins in EMSA [2]: showed binding to each hairpin
melting temperature (Tm) of miR-21 co-incubated with peptide [3]: 60 °C
ΔTm, lowering of melting temperature of dsRNA complex by TCEP ([3]; excess reducing agent, 1 mM TCEP vs no TCEP): 4 °C
EMSA of dsRNA/peptide complex with increasing TCEP ([4]; c(ligand)=6 μM, c(TCEP)=6, 60 and 600 μM): partial disassembly or unlocking of the dsRNA-peptide complex
dsRNA binding in EMSA (band shift) [4]: comparable band is also observed
N-value (peptides per miR-21 duplex) [5]: 1.89
−TΔS (entropic penalty) [5]: 5.7 kcal/mol
Kd [5]: 31.7 nM
fold higher affinity than wt33 ([5]; Kd ratio versus wt33): 10 fold
cellular uptake of Cy5-siRNA co-incubated with peptide (fluorescence) ([6]; 37° C., 1 h, versus Cy5-siRNA alone): increase in fluorescence intensity
cellular uptake of Cy5-siRNA/peptide complex pre-treated with DTT ([6]; DTT pre-treatment (20 mM)): decrease cellular fluorescence intensities

Ac-KKQAQRKRHKLNRKERGHKSPSEQRRSELWHAR (SEQ ID NO 19); 33-amino acid TAV2b RNA-binding peptide without dimerization motif, comparative positive control [wt33, reference compound]
stabilizing effect on miR-21 in increasing FBS [1]: considerably smaller
melting temperature (Tm) of miR-21 co-incubated with peptide [3]: 58 °C
dsRNA binding in EMSA (band shift) [4]: smeared elevated band (ca. 50 bp), corresponding to a 2:1, peptide/dsRNA complex
N-value (peptides per miR-21 duplex) [5]: 1.91
−TΔS (entropic penalty) [5]: 9.3 kcal/mol
Kd [5]: 328 nM
